# According to US20100028420A1, “CONTROLLED RELEASE COMPOSITION AND PROCESS” (3M Innovative Properties Company, priority 2006, published 2010):
# Like-named read-outs stand apart in the source and are kept apart here.
# Test: Titration of dispersed solid with sodium hydroxide (pKa from titration curve)
# Format: physicochemical
# Conditions: for pKa: dispersion of the solid in deionized water
# Protocol: The Comparative Compound (1.0 g) was dispersed in deionized water (199 mL) using a shear mixer/emulsifier (Silverson Model L4R, Silverson Machines, Ltd., Waterside, Chesham, Bucks, England) for approximately 5 minutes. Cresol red indicator (0.04 weight percent in water; 4 drops) was added to aid in end point detection. Samples were titrated (using a 50 mL buret with 0.1 mL graduation) with rapid stirring to maintain suspension of dispersed solid in the liquid medium (0.1 N analytical standard grade sodium hydroxide from Mallinckrodt Baker, Phillipsburg, N.J.) over a period of 1-3 hours. The dispersion became clear after 2 equivalents of base had been added, indicating conversion of the Comparative Compound to a compound corresponding to the righthand structure above. […] At higher concentrations, a liquid crystalline phase potentially useful for encapsulation of guest molecules is formed between a pH of about 7 and a pH of about 8. This phase forms at a steep end point transition of the titration curve, where even a small addition of base caused a significant change in pH (indicating a need for careful monitoring and control of the amount of base addition for use of the Comparative Compound in, for example, the encapsulation of pH-sensitive guest molecules).
# (§1) Folic acid (1.0 g) was dispersed in deionized water (199 mL) using a Silverson L4R shear mixer/emulsifier for approximately 5 minutes. Cresol red indicator (0.04 weight percent in water; 4 drops) was added to aid in end point detection. Samples were titrated (using a 50 mL buret with 0.1 mL graduation) with rapid stirring to maintain suspension of dispersed solid in the liquid medium during the addition of base (0.1 N analytical standard grade sodium hydroxide from Mallinckrodt Baker, Phillipsburg, N.J.). The dispersion became clear after 2 equivalents of base had been added.
# as §1, with “(2.0” for “(1.0”, “(198” for “(199”, “(0.2” for “(0.1”
# [1] = 0.5 weight percent dispersion in deionized water, 0.1 N NaOH
"pKa (0.5 weight percent dispersion in deionized water, 0.1 N NaOH, read-out: first pKa)","pKa (0.5 weight percent dispersion in deionized water, 0.1 N NaOH, read-out: second pKa)","pKa (1 weight percent dispersion in deionized water, 0.2 N NaOH, read-out: first pKa)","pKa (1 weight percent dispersion in deionized water, 0.2 N NaOH, read-out: second pKa)",Structure (SMILES),first pKa [1],second pKa [1]
,,,,Cn1cc[n+](-c2nc(Nc3ccc(C(=O)O)cc3)nc(Nc3ccc(C(=O)O)cc3)n2)c1.[Cl-] [Comparative Compound],about 3.2,about 5.8
~5.8,~5.8,~6.1,~6.1,Nc1nc(=O)c2nc(CNc3ccc(C(=O)N[C@@H](CCC(=O)O)C(=O)O)cc3)cnc2[nH]1 [Folic acid],,
